Tests used:
Experiment in all cases: relative viability (nuclei count vs DMSO), 5 days (fraction); higher = more cells survive
Axitinib + Olaparib = compound: CNC(=O)c1ccccc1Sc1ccc2c(/C=C/c3ccccn3)n[nH]c2c1 [Axitinib] + O=C(c1cc(Cc2n[nH]c(=O)c3ccccc23)ccc1F)N1CCN(C(=O)C2CC2)CC1 [Olaparib] (partner 8 µM)
How it was run: (§1)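 For relative viability, nuclei counts in treated wells were divided by those in vehicle wells. Lung cancer cell lines had been pin-tool dosed in 1536-well plates the day after seeding and cultured for 5 days, then fixed and stained in one step (final 0.05% Triton X-100, 1% formaldehyde, 1 ug/ml Hoechst) and imaged at 4×. Doses were one drug alone or a fixed anchor-drug dose plus five library-drug doses (not always all listed) in √10 steps, and values are duplicate-plate medians.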

Axitinib + Pemetrexed = compound: CNC(=O)c1ccccc1Sc1ccc2c(/C=C/c3ccccn3)n[nH]c2c1 [Axitinib] + Nc1nc2[nH]cc(CCc3ccc(C(=O)N[C@@H](CCC(=O)O)C(=O)O)cc3)c2c(=O)[nH]1 [Pemetrexed] (partner 0.2 µM)
How it was run: as §1

[1] = compound: CC1=CC=C(C=C1)C(=O)CN2C3=C(CCCC3)SC2=N [Pifithrin_alpha] + O=C(c1cc(Cc2n[nH]c(=O)c3ccccc23)ccc1F)N1CCN(C(=O)C2CC2)CC1 [Olaparib] (partner 8 µM)
How it was run: as §1

Axitinib + Phenformin = compound: CNC(=O)c1ccccc1Sc1ccc2c(/C=C/c3ccccn3)n[nH]c2c1 [Axitinib] + N=C(N)NC(=N)NCCc1ccccc1 [Phenformin] (partner 250 µM)
How it was run: as §1

Cell Line	relative viability (Axitinib + Olaparib; first compound 0.005 µM)	relative viability (Axitinib + Olaparib; first compound 0.01581 µM)	relative viability (Axitinib + Olaparib; first compound 0.05 µM)	relative viability (Axitinib + Olaparib; first compound 0.1581 µM)	relative viability (Axitinib + Olaparib; first compound 0.5 µM)	relative viability (Axitinib + Pemetrexed; first compound 0.005 µM)	relative viability (Axitinib + Pemetrexed; first compound 0.01581 µM)	relative viability (Axitinib + Pemetrexed; first compound 0.05 µM)	relative viability (Axitinib + Pemetrexed; first compound 0.1581 µM)	relative viability (Axitinib + Pemetrexed; first compound 0.5 µM)	relative viability ([1]; first compound 1 µM)	relative viability ([1]; first compound 3.162 µM)	relative viability ([1]; first compound 10 µM)	relative viability ([1]; first compound 100 µM)	relative viability (Axitinib + Phenformin; first compound 0.005 µM)	relative viability (Axitinib + Phenformin; first compound 0.01581 µM)	relative viability (Axitinib + Phenformin; first compound 0.05 µM)	relative viability (Axitinib + Phenformin; first compound 0.1581 µM)	relative viability (Axitinib + Phenformin; first compound 0.5 µM)	relative viability ([1]; first compound 31.62 µM)
NCI-H441	0.675	0.499	0.539	0.503	0.453	0.271	0.305	0.232	0.248	0.265	0.608	0.673	0.468	0.542	0.929	0.803	0.882	0.76	0.834	
LC-2-ad	0.735	0.693	0.738	0.708	0.76	0.261	0.257	0.268	0.271	0.277	0.756	0.739	0.683	0.555	0.578	0.592	0.586	0.527	0.498	0.444
NCI-H838	0.869	0.712	0.806	0.756	0.783	0.243	0.25	0.247	0.237	0.25	0.723	0.505	0.469	0.534	0.697	0.509	0.763	0.564	0.654	0.363
NCI-H1944	0.469	0.397	0.384	0.402	0.427	0.6	0.583	0.707	0.657	0.652	0.378	0.337	0.344	0.28	0.204	0.199	0.206	0.191	0.189	0.25
CAL-12T	0.736	0.716	0.736	0.698	0.701	1.43	1.35	1.28	1.22	1.24	0.706	0.631	0.535	0.574	0.567	0.53	0.559	0.63	0.504	0.46
EPLC-272H	0.845	0.927	0.884	0.475	1.13	0.333	0.341	0.302	0.381	0.336	0.762	0.585	0.72	0.467	0.324	0.326	0.341	0.279	0.304	0.425
NCI-H2170	0.693	0.616	0.569	0.595	0.671	0.281	0.252	0.261	0.27	0.27	0.657	0.593	0.541	0.551	0.435	0.412	0.468	0.415	0.5	0.309
SW 900	1.02		1.07	0.892	0.927	0.479		0.469	0.505	0.479	0.646	0.57	0.56	0.487	0.577	0.411	0.464	0.46	0.803	0.378
NCI-H1915	0.28	0.255	0.243	0.234	0.284	0.497	0.494	0.501	0.522	0.536	0.245	0.267	0.249	0.276	0.385	0.362	0.371	0.35	0.393	
NCI-H2087	0.741	0.503	0.642	0.549	0.661	0.766	0.593	0.597	0.7	0.728	0.617	0.614	0.524	0.469	0.48	0.418	0.51	0.444	0.563	0.236
LCLC-97TM1	0.433	0.436	0.446	0.37	0.496	0.203	0.188	0.176	0.186	0.181		0.39	0.33	0.289	0.458	0.381	0.43	0.47	0.314	
NCI-H1734	0.593	0.571	0.62	0.585	0.747	0.413	0.432	0.412	0.435	0.429	0.588	0.502	0.529	0.575	0.423	0.401	0.371	0.404	0.366	0.328
EKVX	0.979	0.826	0.902	0.883	1.03	0.428	0.376	0.457	0.417	0.398	0.825	0.685	0.531	0.336	0.243	0.222	0.214	0.233	0.216	0.266
201T	0.861	0.805	0.795	0.859	0.875	0.379	0.3	0.294	0.302	0.332	0.843	0.891	0.601	0.619	0.475	0.412	0.449	0.446	0.399	0.564
NCI-H2085	0.775	0.769	0.807	0.758	0.787	0.903	0.876	0.905	0.806	0.808	0.807	0.778	0.796	0.685	0.767	0.728	0.742	0.751	0.733	0.523
NCI-H1395	0.51	0.446	0.432	0.435	0.545	0.962	0.761	0.832	0.683	0.736		0.443	0.442	0.432	0.485	0.382	0.465	0.441	0.45	
NCI-H2405	0.892	0.919	0.94	0.827	0.949	0.93	1.28	1.22	1.02	1.15		0.775	0.725	0.644	0.386	0.435	0.468	0.399	0.357	0.51

Reference: the supplement of paper PMC10307832
